pIC50: −log10 of the molar value. One block for each molecule: values may come before it.
What was measured:
[1] = Cmax in fasted Sprague-Dawley rat at 5 mg/kg, IG measured for 24 hrs; assay type: ADME, organism-based; set-up: dose 5 mg/kg, time 24 hrs, route ig; details: in vivo, po
[2] = Volume of distribution at steady state in fasted Sprague-Dawley rat at 1 mg/kg, iv measured for 24 hrs; assay type: ADME, organism-based; details: in vivo, read-out: Vdss
[3] = Clearance in fasted Sprague-Dawley rat at 1 mg/kg, iv measured for 24 hrs; assay type: ADME, organism-based; details: in vivo
[4] = Elimination half life in fasted Sprague-Dawley rat at 5 mg/kg, IG measured for 24 hrs; assay type: ADME, organism-based; details: in vivo, po, read-out: beta t1/2 (converted)
[5] = Bioavailability in fasted Sprague-Dawley rat at 5 mg/kg, IG measured for 24 hrs; assay type: ADME, organism-based; details: in vivo, po
[6] = molecular target: T1, Amine oxidase [flavin-containing] B (Homo sapiens, UniProt P27338); test: Inhibition of recombinant human MAO-B expressed in Sf9 cells using p-tyramine as substrate preincubated for 15 mins followed by substrate addition and measured after 60 mins by luciferin based luminescence analysis
T1 sequence (P27338 whole entry): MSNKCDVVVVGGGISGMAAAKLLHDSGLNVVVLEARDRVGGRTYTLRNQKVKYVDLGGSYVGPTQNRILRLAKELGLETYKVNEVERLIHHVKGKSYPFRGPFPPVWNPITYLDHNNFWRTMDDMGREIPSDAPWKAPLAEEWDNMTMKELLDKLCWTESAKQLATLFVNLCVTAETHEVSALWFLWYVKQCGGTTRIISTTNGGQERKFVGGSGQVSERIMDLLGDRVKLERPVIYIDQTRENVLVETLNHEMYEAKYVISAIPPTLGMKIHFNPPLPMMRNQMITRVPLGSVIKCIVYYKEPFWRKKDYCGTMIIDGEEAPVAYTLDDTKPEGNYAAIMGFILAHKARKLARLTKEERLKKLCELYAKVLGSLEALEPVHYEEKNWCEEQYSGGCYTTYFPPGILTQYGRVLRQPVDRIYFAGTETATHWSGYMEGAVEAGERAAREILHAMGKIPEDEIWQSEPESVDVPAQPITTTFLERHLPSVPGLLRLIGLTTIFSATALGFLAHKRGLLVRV

[7] = AUC (0 to t) in fasted Sprague-Dawley rat at 5 mg/kg, IG measured for 24 hrs; assay type: ADME, organism-based; set-up: dose 5 mg/kg, time 24 hrs, route ig; details: in vivo, po
[8] = molecular target: T2, Amine oxidase [flavin-containing] A (Homo sapiens, UniProt P21397); test: Inhibition of recombinant human MAO-A expressed in Sf9 cells using […] as substrate preincubated for 15 mins followed by substrate addition and measured after 60 mins by luciferin based luminescence analysis
T2 sequence (P21397 whole entry): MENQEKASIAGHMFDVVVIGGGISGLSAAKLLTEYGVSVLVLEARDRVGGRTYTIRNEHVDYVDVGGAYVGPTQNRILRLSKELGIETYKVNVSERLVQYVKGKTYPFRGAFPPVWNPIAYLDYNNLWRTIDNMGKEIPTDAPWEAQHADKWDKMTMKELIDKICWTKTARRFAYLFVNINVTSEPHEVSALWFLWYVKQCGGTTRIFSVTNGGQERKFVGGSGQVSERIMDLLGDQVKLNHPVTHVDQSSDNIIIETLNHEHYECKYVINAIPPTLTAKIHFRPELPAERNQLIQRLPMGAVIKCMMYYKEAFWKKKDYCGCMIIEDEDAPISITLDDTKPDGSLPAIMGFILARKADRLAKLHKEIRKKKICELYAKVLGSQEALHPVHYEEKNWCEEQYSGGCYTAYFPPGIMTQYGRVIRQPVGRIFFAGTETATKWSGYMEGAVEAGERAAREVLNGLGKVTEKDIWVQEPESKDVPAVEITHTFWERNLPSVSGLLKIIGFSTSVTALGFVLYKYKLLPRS

[9] = Cmax in fasted Sprague-Dawley rat at 1 mg/kg, iv measured for 24 hrs; assay type: ADME, organism-based; set-up: dose 1 mg/kg, time 24 hrs, route iv; details: in vivo
[10] = AUC (0 to t) in fasted Sprague-Dawley rat at 1 mg/kg, iv measured for 24 hrs; assay type: ADME, organism-based; set-up: dose 1 mg/kg, time 24 hrs, route iv; details: in vivo
[11] = Elimination half life in fasted Sprague-Dawley rat at 1 mg/kg, iv measured for 24 hrs; assay type: ADME, organism-based; details: in vivo, read-out: beta t1/2 (converted)
[12] = Cmax in fasted ICR mouse at 5 mg/kg, IG measured for 24 hrs; assay type: ADME, organism-based; set-up: dose 5 mg/kg, time 24 hrs, route ig; details: in vivo, po
[13] = Elimination half life in fasted ICR mouse at 5 mg/kg, IG measured for 24 hrs; assay type: ADME, organism-based; details: in vivo, po, read-out: beta t1/2 (converted)
[14] = AUC (0 to t) in fasted ICR mouse at 2 mg/kg, iv measured for 24 hrs; assay type: ADME, organism-based; set-up: dose 2 mg/kg, time 24 hrs, route iv; details: in vivo
[15] = Clearance in fasted ICR mouse at 2 mg/kg, iv measured for 24 hrs; assay type: ADME, organism-based; details: in vivo
[16] = Elimination half life in fasted ICR mouse at 2 mg/kg, iv measured for 24 hrs; assay type: ADME, organism-based; details: in vivo, read-out: beta t1/2 (converted)
[17] = Volume of distribution at steady state in fasted ICR mouse at 2 mg/kg, iv measured for 24 hrs; assay type: ADME, organism-based; details: in vivo, read-out: Vdss
[18] = Cmax in fasted ICR mouse at 2 mg/kg, iv measured for 24 hrs; assay type: ADME, organism-based; set-up: time 24 hrs, dose 2 mg/kg, route iv; details: in vivo
[19] = AUC (0 to t) in fasted ICR mouse at 5 mg/kg, IG measured for 24 hrs; assay type: ADME, organism-based; set-up: dose 5 mg/kg, time 24 hrs, route ig; details: in vivo, po
[20] = Bioavailability in fasted ICR mouse at 5 mg/kg, IG measured for 24 hrs; assay type: ADME, organism-based; details: in vivo, po

Cmax [1]: 185 ng/mL | Vd [2]: 4.96 L/kg | clearance [3]: 87.9 mL/min/kg | half-life [4]: 63.6 min | bioavailability [5]: 56.3% | pIC50 [6]: 7.07 | AUC(0-t) at 24 h [7]: 527 ng·h/mL | pIC50 [8]: 5.31 | Cmax ([9]; Sprague-Dawley, read-out: Cmax): 204 ng/mL | AUC(0-t) at 24 h [10]: 188 ng·h/mL | half-life [11]: 47 min
SMILES: NC(=O)[C@@H]1CCN1Cc1ccc2oc(-c3cccc(F)c3)cc2c1

Cmax [12]: 833 ng/mL | Cmax [1]: 690 ng/mL | half-life [13]: 46.8 min | AUC(0-t) at 24 h [14]: 561 ng·h/mL | clearance [15]: 63.3 mL/min/kg | Cmax ([9]; 24 h): 69.1 ng/mL | half-life [16]: 33 min | Vd [17]: 2.6 L/kg | Cmax [18]: 613 ng/mL | AUC(0-t) at 24 h [19]: 1080 ng·h/mL | bioavailability [20]: 77.4%
SMILES: NC(=O)[C@@H]1C[C@H](F)CN1Cc1ccc(OCc2cccc(F)c2)cc1

pIC50 [6]: 5.71 | pIC50 [8]: < 5.00
SMILES: COc1ccccc1-c1cc2cc(CN3CC[C@H]3C(N)=O)ccc2o1

pIC50 [6]: 6.02 | pIC50 [8]: 5.45
SMILES: C[C@H](NCc1ccc2oc(-c3ccc(F)cc3)cc2c1)C(N)=O

pIC50 [6]: 5.30 | pIC50 [8]: 5.21
SMILES: C[C@H](NCc1ccc2oc(-c3ccccc3F)cc2c1)C(N)=O

pIC50 [6]: 6.99 | pIC50 [8]: < 5.00
SMILES: COc1cccc(-c2cc3cc(CN4CC[C@H]4C(N)=O)ccc3o2)c1

Cmax [1]: 409 ng/mL | Vd [2]: 4.12 L/kg | clearance [3]: 66.4 mL/min/kg | half-life [4]: 133 min | bioavailability [5]: 126% | pIC50 [6]: 7.26 | AUC(0-t) at 24 h [7]: 1500 ng·h/mL | pIC50 [8]: 5.31 | Cmax ([9]; Sprague-Dawley, read-out: Cmax): 237 ng/mL | AUC(0-t) at 24 h [10]: 250 ng·h/mL | half-life [11]: 41.2 min
SMILES: NC(=O)[C@@H]1C[C@H](F)CN1Cc1ccc2oc(-c3cccc(F)c3)cc2c1

pIC50 [6]: 5.02 | pIC50 [8]: 5.21
SMILES: COc1ccccc1-c1cc2cc(CN[C@@H](C)C(N)=O)ccc2o1
